Counter-ions that a name gives are not always drawn.
Assays:
HCT116 [1] = assay: AC50 cell viability (CellTiter-Glo); higher = less potent; settings: 48 h
HCT116 [2] = assay: efficacy (fitted maximal change in viability relative to DMSO control); higher = less cytotoxic (negative = loss of viability); settings: 48 h
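Wherever AC50 cell viability (CellTiter-Glo) is given: HCT116 colorectal carcinoma cells screened at five concentrations per compound, luminescent viability scaled between DMSO wells and empty wells on each plate, curves fitted per compound.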
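Wherever efficacy (fitted maximal change in viability relative to DMSO control) is given: Luminescence-based viability readout, five doses per compound, normalized against on-plate DMSO and empty-well controls, followed by dose-response curve fitting for every drug.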

## COC1=C(NC2=NC=C(Cl)C(=N2)N[C@@H]3[C@H]\4C[C@@H](\C=C4)[C@H]3C(N)=O)C=CC5=C1CCC(CC5)N6CCOCC6 (some centres undefined)
HCT116 [1]
  AC50 cell viability: 4.17 µM
HCT116 [2]
  efficacy: -74.2%

## CN1CCN(c2ccc3nc(-c4cc(C(C)(C)C)c(OCCCC(=O)NCCCN=[N+]=[N-])c(C(C)(C)C)c4)[nH]c3c2)CC1 [MIR96-IN-1]
HCT116 [1]
  AC50 cell viability: 8.33 µM
HCT116 [2]
  efficacy: -98.9%

## COCCOc1ccc2c(c1)ncn2-c1ccc2cccc(N3CCC(N)CC3)c2n1
HCT116 [1]
  AC50 cell viability: 2.95 µM
HCT116 [2]
  efficacy: -85.5%

## O=C(NOCC(O)CO)c1cc(Br)c(F)c(F)c1Nc1ccc(I)cc1F (centres undefined)
HCT116 [1]
  AC50 cell viability: 0.934 µM
HCT116 [2]
  efficacy: -69.5%

## CN(C)C/C=C/C(=O)Nc1ccc(C(=O)N2CCC[C@@H](Nc3ncc(Cl)c(-c4c[nH]c5ccccc45)n3)C2)cc1 [THZ531]
HCT116 [1]
  AC50 cell viability: 0.132 µM
HCT116 [2]
  efficacy: -74.2%

## C[C@@H]1CN(Cc2ccc(F)cc2)CCN1C(=O)COc1ccc(Cl)cc1NC(N)=O [BX-471]
HCT116 [1]
  AC50 cell viability: 0.209 µM
HCT116 [2]
  efficacy: -59.8%

## CCCCCC1=CC(=C([C@@H]2\C=C(C)/CC[C@H]2C(C)=C)C(=C1)O)O [Cannabidiol]
HCT116 [1]
  AC50 cell viability: 20.9 µM
HCT116 [2]
  efficacy: -84.5%

## O=C(c1c(F)ccc(N[S+](=O)([O-])N2CC[C@@H](F)C2)c1F)c1c[nH]c2ncc(-c3cnc(C4CC4)nc3)cc12 [PLX-8394]
HCT116 [1]
  AC50 cell viability: 13.2 µM
HCT116 [2]
  efficacy: -51.7%

## Cc1nc2c([nH]1)-c1ccccc1N(C(=O)c1ccc(NC(=O)c3ccccc3-c3ccccc3)cc1)CC2 [Conivaptan hydrochloride]
HCT116 [1]
  AC50 cell viability: 20.9 µM
HCT116 [2]
  efficacy: -45.3%

## Nc1ncnc2nc(-c3ccc(N4CCOCC4)nc3)cc(-c3cccc(Br)c3)c12 [ABT-702]
HCT116 [1]
  AC50 cell viability: 20.9 µM
HCT116 [2]
  efficacy: -53%

## CCN(CC)CCOC1=CC=C(NC2=NC=C3\C=C(/C(=O)N(C)C3=N2)C4=C(Cl)C=CC=C4Cl)C=C1
HCT116 [1]
  AC50 cell viability: 1.18 µM
HCT116 [2]
  efficacy: -86.9%

## COC1CC(C(=O)c2ccc3c(N)ncc(-c4ccc(-c5cnn(C)c5)cc4)c3n2)C1 (centres undefined) [CDK8i-51]
HCT116 [1]
  AC50 cell viability: 5.25 µM
HCT116 [2]
  efficacy: -34.9%

## C=C1CC[C@@H]2[C@](C)(CO)[C@H](O)CC[C@@]2(C)[C@@H]1C/C=C1/C(=O)OC[C@H]1O [Andrographolide]
HCT116 [1]
  AC50 cell viability: 4.68 µM
HCT116 [2]
  efficacy: -68.1%

## Nc1ncnc2c1c(-c1cccc(OCc3ccccc3)c1)cn2[C@H]1C[C@H](CN2CCCC2)C1 [ADW-742]
HCT116 [1]
  AC50 cell viability: 16.6 µM
HCT116 [2]
  efficacy: -84.3%

## C=CC(=O)Nc1cc2c(Nc3ccc(F)c(Cl)c3)ncnc2cc1OCCCN1CCOCC1 [Canertinib]
HCT116 [1]
  AC50 cell viability: 14.8 µM
HCT116 [2]
  efficacy: -116%

## CN1CCN(c2ccc(C(=O)Nc3n[nH]c4ccc(Cc5cc(F)cc(F)c5)cc34)c(NC3CCOCC3)c2)CC1 [Entrectinib]
HCT116 [1]
  AC50 cell viability: 5.25 µM
HCT116 [2]
  efficacy: -101%

## CC(C)C[C@H](NC(=O)[C@H](Cc1ccccc1)NC(=O)c1cnccn1)B(O)O [Bortezomib]
HCT116 [1]
  AC50 cell viability: 0.0132 µM
HCT116 [2]
  efficacy: -94.1%

## COc1ccc(N(C)c2nc(C)nc3ccccc23)cc1 [Azixa]
HCT116 [1]
  AC50 cell viability: 0.00372 µM
HCT116 [2]
  efficacy: -64.3%

## NC1(C(=O)N[C@@H](CCO)c2ccc(Cl)cc2)CCN(c2ncnc3[nH]ccc23)CC1 [AZD-5363]
HCT116 [1]
  AC50 cell viability: 11.8 µM
HCT116 [2]
  efficacy: -83.1%

## Clc1ccc(COC(Cn2ccnc2)c2ccc(Cl)cc2Cl)cc1 (centres undefined) [Econazole nitrate]
HCT116 [1]
  AC50 cell viability: 20.9 µM
HCT116 [2]
  efficacy: -83.5%

## COC1=CC=C2Nc3cc(Cl)ccc3C(N=C3C=C(CN4CCCC4)C(=O)C(CN4CCCC4)=C3)=C2N1 [PYRONARIDINE TETRAPHOSPHATE]
HCT116 [1]
  AC50 cell viability: 9.34 µM
HCT116 [2]
  efficacy: -76.4%

## COc1cccc2c1C(=O)c1c(O)c3c(c(O)c1C2=O)C[C@@](O)(C(=O)CO)CC3OC1CC(N2CCOC(OC)C2)C(O)C(C)O1 (some centres undefined) [Nemorubicin]
HCT116 [1]
  AC50 cell viability: 0.0263 µM
HCT116 [2]
  efficacy: -66%

## CCC(=C/[C@H](C)C/C=C/C(C)=C/[C@@H](C)C(=O)[C@@H](C)[C@H](O)[C@@H](C)C/C(C)=C/C(=O)O)/C=C/[C@@H]1OC(=O)C=C[C@@H]1C [Leptomycin B]
HCT116 [1]
  AC50 cell viability: 0.00372 µM
HCT116 [2]
  efficacy: -80.9%

## CC\1=C/C=C\C=[N]1[Pt](N)(Cl)Cl [Picoplatin]
HCT116 [1]
  AC50 cell viability: 20.9 µM
HCT116 [2]
  efficacy: -50.8%

## CC(C)(C)c1cc(NC(=O)Nc2ccc(-c3cn4c(n3)sc3cc(OCCN5CCOCC5)ccc34)cc2)no1 [Quizartinib]
HCT116 [1]
  AC50 cell viability: 13.2 µM
HCT116 [2]
  efficacy: -74.1%

## Cc1cc(Nc2nc(N[C@@H](C)c3ncc(F)cn3)ncc2Cl)n[nH]1 [AZD-1480]
HCT116 [1]
  AC50 cell viability: 5.25 µM
HCT116 [2]
  efficacy: -66.2%

## CNC(=O)c1cccc(-c2ccc3c(N4CCOC[C@@H]4C)nc(N4CCOC[C@@H]4C)nc3n2)c1 [Vistusertib]
HCT116 [1]
  AC50 cell viability: 0.417 µM
HCT116 [2]
  efficacy: -31.3%

## CCNC(=O)Nc1ccc(Oc2ncnc(N)c2/C=N/OC)cc1Cl
HCT116 [1]
  AC50 cell viability: 23.5 µM
HCT116 [2]
  efficacy: -70.7%

## Cc1c(NC(=O)c2cc(C(N)=O)nc3cc(F)ccc23)c(C(F)(F)F)nn1Cc1ccc(C#N)cc1 [BAY-876]
HCT116 [1]
  AC50 cell viability: 4.68 µM
HCT116 [2]
  efficacy: -89.3%

## CCCCNc1ncc2c(-c3ccc(CN4CCN(C)CC4)cc3)cn(C3CCC(O)CC3)c2n1 (centres undefined) [UNC-2025]
HCT116 [1]
  AC50 cell viability: 1.66 µM
HCT116 [2]
  efficacy: -74.3%

## Cc1[nH]c(/C=C2\C(=O)Nc3ccc(F)cc32)c(C)c1C(=O)NCCN1CCCC1 [Toceranib]
HCT116 [1]
  AC50 cell viability: 8.11 µM
HCT116 [2]
  efficacy: -95.7%

## CC(C)CC(=O)Nc1n[nH]c2c1CN(C(=O)C1CCN(C)CC1)C2(C)C
HCT116 [1]
  AC50 cell viability: 0.186 µM
HCT116 [2]
  efficacy: -68.7%

## CCCCN(CCCC)CCC(O)c1cc2c(Cl)cc(Cl)cc2c2cc(C(F)(F)F)ccc12.Cl (centres undefined) [Halofantrine]
HCT116 [1]
  AC50 cell viability: 20.9 µM
HCT116 [2]
  efficacy: -66.6%

## COC1=CC=C2[N](CCCN(C)C)C=C(C2=C1)C/3=C(/C(=O)NC3=O)C4=C[NH]C5=C4C=CC=C5 [Go-6983]
HCT116 [1]
  AC50 cell viability: 10.5 µM
HCT116 [2]
  efficacy: -111%

## Cc1nc2cnc3ccc(C#Cc4cccnc4)cc3c2n1-c1ccc(C(C)(C)C#N)cc1 [BAG-956]
HCT116 [1]
  AC50 cell viability: 1.18 µM
HCT116 [2]
  efficacy: -92.6%

## C[C@@H](NC(=O)c1ncnc(N)c1Cl)c1ncc(C(=O)Nc2cc(C(F)(F)F)c(Cl)cn2)s1 [MLN 2480]
HCT116 [1]
  AC50 cell viability: 13.2 µM
HCT116 [2]
  efficacy: -95.4%

## CC(C)(Cc1ccc2ccccc2c1)NC[C@@H](O)COc1cccc(Cl)c1C#N [NPS-2143]
HCT116 [1]
  AC50 cell viability: 9.34 µM
HCT116 [2]
  efficacy: -97.5%

## Clc1ccc(C(c2ccc(Cl)cc2)[n+]2ccn(CC(OCc3ccc(Cl)cc3Cl)c3ccc(Cl)cc3Cl)c2)cc1 (centres undefined) [Calmidazolium chloride]
HCT116 [1]
  AC50 cell viability: 10.5 µM
HCT116 [2]
  efficacy: -100%

## NC(=O)Nc1cc(-c2ccc(CN3CCOCC3)cc2)sc1C(N)=O [AZ-TAK1 Inhibitor]
HCT116 [1]
  AC50 cell viability: 5.25 µM
HCT116 [2]
  efficacy: -71%

## COC(=O)[C@H]1[C@@H](O)[C@@]2(O)c3c(OC)cc(O[C@@H]4O[C@@H]([C@@H](O)CO)CO[C@H]4OC)cc3O[C@@]2(c2ccc(OC)cc2)[C@@H]1c1ccccc1 [Episilvestrol]
HCT116 [1]
  AC50 cell viability: 8.33 µM
HCT116 [2]
  efficacy: -54.9%

## Fc1ccc(-c2csc3ncnc(NCc4ccc5c(c4)OCO5)c23)cc1
HCT116 [1]
  AC50 cell viability: 8.33 µM
HCT116 [2]
  efficacy: -57.3%

## Cc1cccc(Nc2nc(-c3ccncc3)cs2)c1
HCT116 [1]
  AC50 cell viability: 18.6 µM
HCT116 [2]
  efficacy: -69.9%

— the supplement of paper PMC10290057
